BindingDB's records for doi:10.7270/Q2ZP44JJ (Burnham Center For Chemical Genomics, 2009)

Biological target: T1, Tyrosine-protein phosphatase non-receptor type 22 (Homo sapiens, UniProt Q9Y2R2)
T1 sequence (Q9Y2R2 whole entry): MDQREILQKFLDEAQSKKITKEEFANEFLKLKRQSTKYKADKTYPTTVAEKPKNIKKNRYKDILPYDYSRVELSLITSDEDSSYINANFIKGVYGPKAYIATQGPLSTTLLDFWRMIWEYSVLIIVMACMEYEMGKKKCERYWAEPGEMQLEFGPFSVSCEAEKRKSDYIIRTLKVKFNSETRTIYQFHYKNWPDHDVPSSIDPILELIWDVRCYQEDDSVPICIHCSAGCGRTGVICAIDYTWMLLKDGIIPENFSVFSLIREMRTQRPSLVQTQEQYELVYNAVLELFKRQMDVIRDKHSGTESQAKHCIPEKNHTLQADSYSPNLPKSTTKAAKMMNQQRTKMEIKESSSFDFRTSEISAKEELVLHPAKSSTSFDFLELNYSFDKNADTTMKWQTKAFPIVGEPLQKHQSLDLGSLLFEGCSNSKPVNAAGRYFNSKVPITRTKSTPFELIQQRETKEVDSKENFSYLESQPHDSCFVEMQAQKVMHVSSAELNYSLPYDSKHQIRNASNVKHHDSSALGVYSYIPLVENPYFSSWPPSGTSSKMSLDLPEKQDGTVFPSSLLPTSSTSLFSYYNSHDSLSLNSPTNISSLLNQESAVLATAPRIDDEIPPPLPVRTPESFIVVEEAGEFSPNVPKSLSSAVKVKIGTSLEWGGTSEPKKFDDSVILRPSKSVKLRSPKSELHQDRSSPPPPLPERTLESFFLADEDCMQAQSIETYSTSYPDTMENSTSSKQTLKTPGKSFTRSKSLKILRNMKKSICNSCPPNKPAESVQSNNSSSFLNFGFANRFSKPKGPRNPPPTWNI
Assay: PubChem AID 2140

- IC50: 43.4 µM
SMILES: CCOc1ccc2nc(NC(=O)CSc3cc(O)c4c(C)c(C)sc4n3)sc2c1 [2-[(2,3-dimethyl-4-oxidanylidene-5H-thieno[2,3-b]pyridin-6-yl)sulfanyl]-N-(6-ethoxy-1,3-benzothiazol-2-yl)ethanamide]
